According to patent publication US10688119B2, “Inhibitors of PCSK9 for treatment of lipoprotein metabolism disorders” (Aarhus Universitet, priority 2015, dated 2020):
Entries after “also recorded” stand apart in the source; their conditions may differ. Where two headings read alike, the source gives them in different places.

Key:
LDLR in HepG2 cells [1] = assay: LDLR levels in HepG2 cells by Western blot/densitometry (PCSK9 induced LDLR degradation)
Method: (§1) Purified PCSK9 variants were tested in a cell assay to test their ability to induce degradation of LDLR compared to wild-type PCSK9. Induction of LDLR degradation was analyzed by incubation of HepG2 cells with wild type PCSK9 (WT) or the above PCSK9 mutants and LDLR levels were assessed by Western blotting. HepG2 cells were seeded at a density 250.000 cells per well in 12-well plates. […] Cells were harvested and lysed following 18 hours incubation and LDLR levels were assessed by Western blotting and quantification by densitometry.
The PCSK9 inhibitory effect of overnight incubation with suramin (0-200 μg/ml) was tested in HepG2 cells (FIG. 9 A-B).

J774 macrophages = system: J774 macrophages; set-up: dose or concentration left out as unconfirmed; details: cited from earlier work
apoE−/− mice = details: 4-week treatment, cited from earlier work
[2] = heparin affinity chromatography of PCSK9 and variants; format: binding; details: conditioned media, Heparin Sepharose CL-6B beads
Method: Purified PCSK9 was loaded onto a 5 ml HiTrap Heparin HP column (GE Healthcare) in PBS. The column was connected to an Äkta Prime and washed with 5 column volumes of 10 mM NaH2PO4 (pH 7.4). PCSK9 was eluted using a linear gradient of 10 mM NaH2PO4 (pH 7.4) and 2 M NaCl and fractions were analyzed by SDS-PAGE. Based on the measured conductivity, the elution profile was transformed to a function of NaCl concentration using the transformation coefficient 0.065 mS/mM NaCl. PCSK9 was retained on the heparin column and eluted at a NaCl concentration of approximately 500 mM (FIG. 2E), indicating a strong and highly specific interaction with heparin.
In a different experiment, conditioned media from HepG2 cells were incubated with Heparin Sepharose CL-6B beads (GE Healthcare) in 10 mM NaH2PO4 (binding buffer). Following overnight incubation on a rotor at 4⊐ C, beads were washed in binding buffer before batch elution of heparin bound proteins in increasing concentration of NaCl. PCSK9 in input, flow through, and elution fractions were evaluated by Western blotting.
Conditioned media from CHO cells transfected with PCSK9 variants of interest were incubated with Heparin Sepharose CL-6B beads (GE Healthcare) in 10 mM NaH2PO4 (binding buffer). Following overnight incubation on a rotor at 4° C., beads were washed in binding buffer before batch elution of heparin bound proteins in increasing concentration of NaCl. PCSK9 in input, flow through, and elution fractions were evaluated by Western blotting.

LDLR in liver = assay: liver LDLR levels in mice after intravenous PCSK9 (Western blot); format: in vivo, mice (BALB6/cJRj)
Method: To test the effect of enzymatic removal of heparan sulfate GAGs on PCSK9 activity in vivo 10-12 week-old male BALB6/cJRj mice were infused with heparinase I (30 U) administered through a tail vein catheter 5 min prior injection of PCSK9 (10 μg). In control mice the heparinase injection and/or the PCSK9 injection were replaced with an injection of 0.9% saline. During heparinase infusion, mice were lightly anaesthetized with isoflurane continuously administered through a mask.
Mice (BALB6/cJRj) were subjected to a single intravenous administration (tail vein) of 10 μg human recombinant PCSK9 alone or in combination with heparin (50 U). One hour post injection mice were sacrificed and liver tissues were collected.

LDLR in HepG2 cells [3] = assay: LDLR degradation in HepG2 cells induced by PCSK9 WT or mutant; format: cell-based, human; details: 10 nM PCSK9, 18 hours
Method: as §1

PCSK9 = PCSK9 (Homo sapiens, UniProt Q8NBP7); assay: Microscale Thermophoresis (MST) equilibrium binding to PCSK9; details: 100 nM labelled PCSK9, PBS+0.05% Tween-20
PCSK9, sequence (Q8NBP7 153-692): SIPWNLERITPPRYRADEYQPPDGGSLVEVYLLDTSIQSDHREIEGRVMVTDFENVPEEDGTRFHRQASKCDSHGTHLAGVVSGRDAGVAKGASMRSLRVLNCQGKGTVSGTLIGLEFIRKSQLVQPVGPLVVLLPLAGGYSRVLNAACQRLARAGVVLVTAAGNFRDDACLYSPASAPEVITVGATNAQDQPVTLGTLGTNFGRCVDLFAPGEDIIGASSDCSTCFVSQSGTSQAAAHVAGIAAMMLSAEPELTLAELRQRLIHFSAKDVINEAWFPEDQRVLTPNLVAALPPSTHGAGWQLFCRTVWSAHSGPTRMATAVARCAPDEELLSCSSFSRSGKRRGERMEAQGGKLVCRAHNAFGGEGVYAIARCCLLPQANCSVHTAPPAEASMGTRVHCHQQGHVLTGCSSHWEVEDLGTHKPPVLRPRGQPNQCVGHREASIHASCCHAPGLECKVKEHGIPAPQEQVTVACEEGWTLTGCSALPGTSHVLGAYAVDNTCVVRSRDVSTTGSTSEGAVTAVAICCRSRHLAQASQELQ
Method: PCSK9 was labeled using the MO-L003 Monolith Blue-NHS labeling kit (NanoTemper Technologies) and a labeling efficiency of 1:1 molar ratio of protein to dye was achieved. PCSK9 was applied at a final concentration of 100 nM. […] MST measurements were performed in standard-treated capillaries (NanoTemper Technologies) on a Monolith NT.115 instrument (NanoTemper Technologies) using 20% LED and 80% MST power. Laser on and off times were 5 s and 35 s, respectively. Negative controls were performed using 100 nM of labelled PCSK9 in MST buffer in all 16 capillaries under the same conditions as mentioned above. […] For each binding partner, the sigmoidal dose-response curves were fitted with GraphPad Prism 6 to yield an average KD value.

[4] = target: T1, R93R96R97R104R105H139 PCSK9 mutant and variants (Homo sapiens, UniProt Q8NBP7, H139A/R104A/R105A/R93A/R96A/R97A); assay: immunoprecipitation of 35S-mutant PCSK9 and PCSK9 variants; format: binding; details: 500 μl conditioned hybridoma media
T1 construct: expressed in transfected cells
Method: Western blot of GAPDH is shown as loading control. (B) Western Blot showing LDLR levels in liver of mice 1 hour afterintravenous administration of 10 μg PCSK9 alone or in combination with 50 U Heparin. 50 μg membrane preparations were loaded. As control is shown Western Blot for sortilin, a PCSK9 receptor previously shown not to be target of PCSK9 induced degradation. (C) Quantification of B) Bands were quantified by densitometry and dot plot show the individual level of each sample in percent of vehicle (0.9% NaCl) injected controls with mean values and SEM. […] (D) Autoradiography (16 h exposure) showing immunoprecipitation of native human ^35S labeled PCSK9 by serum (1 μl) from three rats immunized with DNA encoding rat PCSK9 with human HSPG binding domain. As negative controls were used preimmune serum from the animals. (E) Western Blot showing LDLR in HepG2 cells after overnight incubation with preimmune or immune IgG (1 μg/ml). […] (F) Autoradiography (16 h exposure) showing immunoprecipitation of human ^35S-PCSK9 by 24 individual mAbs (500 μl conditioned hybridoma media) selected in ELISA screening performed by Aldevron. […] (G) Bar graphs showing LDLR levels (average of 2-4 experiments with SEM) in HepG2 cells incubated with mAbs (1:10 dilution of conditioned hybridoma media) as analysed by Western Blot. Twelve individual mAb clones give an approximately two-fold increase LDLR. (H) Autoradiography (16 h exposure) showing immunoprecipitation of human ^35S-mutant PCSK9 (with R93R96R97R104R105H139 mutated to alanine residues) by 12 individual mAbs (500 μl conditioned hybridoma media) all showing PCSK9 inhibitory effect. As control was used a polyclonal antibody (pAb, AF3888 from R&D systems). […] As control was used R&D Systems AF3888 (pAb).
These 12 clones were tested to see whether they can bind an R93R96R97R104R105H139 PCSK9 mutant (FIG. 8H).

[5] = system: cell surface PCSK9 on HepG2 cells; assay: surface PCSK9 immunostaining of non-permeabilized HepG2 cells stably expressing PCSK9; format: cell-based, human; details: heparinase I 0.0002 UN/ml, 1 h
Method: We speculated that HSPG might be involved in the capture of PCSK9. Thus, we treated human hepatocyte-derived HepG2 cells stably expressing PCSK9 with heparinase I. The enzyme heparinase I cleaves heparan sulfate GAG chains at the 1,4 O-linkage between uronic acid and D-glucosamine, thereby removing cell surface heparan sulfate chains.
HepG2 cells stably transfected with PCSK9 were seeded at 50.000 cells per coverslip and incubated overnight before addition of heparinase I (Sigma Aldrich/H2519) in PBS (0.0002 UN/ml) or PBS alone. Cells were incubated for 1 h. at 37⊐ C, before fixation in 4% paraformaldehyd and immunostaining of non-permeabilized cells with primary and secondary antibodies. Nuclei were visualized with Hoechst dye (Sigma Aldrich). Images were acquired on a Zeiss LSM780.

In the case of `CO[C@H]1O[C@H](COS(=O)(=O)O)[C@@H](O[C@@H]2O[C@@H](C(=O)O)[C@@H](O[C@H]3O[C@H](COS(=O)(=O)O)[C@@H](O[C@@H]4O[C@H](C(=O)O)[C@@H](O[C@H]5O[C@H](COS(=O)(=O)O)[C@@H](O)[C@H](O)[C@H]5NS(=O)(=O)O)[C@H](O)[C@H]4O)[C@H](OS(=O)(=O)O)[C@H]3NS(=O)(=O)O)[C@H](O)[C@H]2OS(=O)(=O)O)[C@H](O)[C@H]1NS(=O)(=O)O` [Arixtra, Fondaparinux], the “LDLR level in HepG2 cells” value (LDLR in HepG2 cells [1]; Arixtra 25-250 μg/ml, 24 h) is reported as “elevated level of LDLR” and the “LDLR level in HepG2 cells” value (LDLR in HepG2 cells [1]; Arixtra 25-250 μg/ml, 24 h, listed as Fondaparinux) is reported as “increased levels of LDLR”.

In the case of `Cc1nc(N=Nc2ccc(S(=O)(=O)O)cc2S(=O)(=O)O)c(COP(=O)(O)O)c(C=O)c1O` [PPADS, pyridoxal-phosphate-6-azophenyl-2′-4′-disulphonic acid], the “block of UDP effect on iNOS and interleukin-6” value (J774 macrophages) is listed as “blocked”, the plaque size (apoE−/− mice; suramin 50 and PPADS 25 mg·kg-1·day-1, listed as PPDAS) is listed as “reduce plaque size” and the plaque size (apoE−/− mice; suramin 50 and PPADS 25 mg·kg-1·day-1) is listed as “reduces plaque size”.

With “Mutant R93: PCSK9 alanine substitution variant” the “binding to heparin (affinity chromatography)” value (from here on “binding to heparin”) [2] was “less affinity for heparin”.

With “Mutant R93R104R105H139A: PCSK9 alanine substitution variant” the “binding to heparin” value [2] was “do not bind heparin; also recorded: did not bind to heparin”.

In the case of “WT PCSK9: wild type human PCSK9 (SEQ ID NO: 1)”, the “binding to heparin” value [2] is reported as “bound heparin Sepharose”, the “LDLR level in liver in percent of vehicle injected controls” value (LDLR in liver; 1 hour after intravenous 10 μg PCSK9 alone or with 50 U Heparin, n=7 mice/group) is reported as 24.0±4.04% and the “LDLR levels in HepG2 cells incubated with PCSK9 variant” value (LDLR in HepG2 cells [3]) is reported as “significantly lower levels of LDLR”.

For dextran [non-sulfated dextran], the “KD (affinity for PCSK9, MST)” value (PCSK9) was “no affinity”.

In the case of dextran sulphate [dextran sulfate], the Kd (PCSK9; read-out: KD (affinity for PCSK9, MST)) is reported as 180 µM, the “LDLR level in HepG2 cells” value (LDLR in HepG2 cells [1]; dextran sulphate 0-200 μg/ml, 24 hour) is reported as “concentration dependent increase of LDLR” and the “LDLR level in HepG2 cells” value (LDLR in HepG2 cells [1]; dextran sulphate 0-200 μg/ml, 24 hour, listed as dextran sulphate) is reported as “potently increase the cellular level of LDLR”. For the same molecule, the “plateau of cellular LDLR compared to vehicle control” value (LDLR in HepG2 cells [1]; dose-dependent, HepG2 cells) was “around 400%”.

B1: mAb 8HA: rat monoclonal antibody against the HSPG binding domain; VH SEQ ID NO: 9, VK SEQ ID NO: 3 (antibody, V domains shown)
VH: QVTLKESGPGILQPSQTLSLTCSFSGFSLSSSGICVSWIRQPSGKGLEWLATICWEDSKGYNPSLKNRLTISKDTSNNQALLRITSVDTADTAIYYCARVYYWYFDFWGPGTMVTVSS
VL: DIVMTQSPSLLSASVGDRVTLSCKGSQNINNYLAWYQQKLGEAPKLLIYNTNSLQTGIPSRFSGSGSGTDCTLTIRSLQPEDVATYFCYQYNNGNTFGGGTKLELK
For B1, the “binding of R93R96R97R104R105H139 PCSK9 mutant (immunoprecipitation)” value [4] was “not able to bind this mutant” and the “increase of cellular LDLR” value (LDLR in HepG2 cells [1]; mAbs, 1:10 dilution of conditioned hybridoma media) was “approximately two fold”.

B2: heparinase I: enzyme that cleaves heparan sulfate GAG chains (Sigma Aldrich/H2519) (protein, UniProt Q05819 22-384, looked up)
Heparin lyase I: QQKKSGNIPYRVNVQADSAKQKAIIDNKWVAVGINKPYALQYDDKLRFNGKPSYRFELKAEDNSLEGYAAGETKGRTELSYSYATTNDFKKFPPSVYQNAQKLKTVYHYGKGICEQGSSRSYTFSVYIPSSFPDNATTIFAQWHGAPSRTLVATPEGEIKTLSIEEFLALYDRMIFKKNIAHDKVEKKDKDGKITYVAGKPNGWKVEQGGYPTLAFGFSKGYFYIKANSDRQWLTDKADRNNANPENSEVMKPYSSEYKTSTIAYKMPFAQFPKDCWITFDVAIDWTKYGKEANTILKPGKLDVMMTYTKNKKPQKAHIVNQQEILIGRNDDDGYYFKFGIYRVGNSTVPVTYNLSGYSETAR
For B2, the “liver LDLR level / PCSK9 induced degradation of LDLR in vivo” value (LDLR in liver; 1 hour after PCSK9 10 μg, heparin 50 U or suramin 300 μg co-injected, heparinase I 30 U infused before) was “completely protected LDLR from PCSK9-induced degradation; also recorded: completely inhibits PCSK9 induced degradation of LDLR” and the “intensity of surface PCSK9 staining” value [5] was “marked decrease in the intensity of surface PCSK9 staining”.
